Tested on: HUVEC
Test: Apoptosis in HUVEC incubated with 2-bromopalmitate
Format: cell-based, human
Details: inhibition of free fatty acid oxidation
Experimental: To test this notion, experiments were performed in HUVEC incubated with 2-bromopalmitate, an inhibitor of CPT1 which inhibits free fatty oxidation, or a higher concentration of free fatty acids (0.5 mM vs. 0.1 mM palmitate).

**Q.** Which apoptosis does the source give for `CCCCCCCCCCCCCCC(Br)C(=O)O` (stereo not shown) [2-bromopalmitate] here?
**A.** The apoptosis was “promotes apoptosis”.

— patent US20030212014A1 (priority 2000, published 2003)
